The nature of data set [1]: Binding affinity to 5'-biotin labeled GCGAGGCAGACACGCTTTTGCGTGTCTGCCTCGC-3' DNA (unknown origin) by SPR analysis. In general terms: In SPR one partner is held on a chip, and binding of the other changes the refractive index at the surface.
Data set [2] in a line: Aqueous solubility of the compound […] assessed as saturation concentration by nanodrop analysis. It counts as physicochemical.
The nature of data set [3]: Binding affinity to 5'-biotin labeled GCGAGGCAGACACGCTTTTGCGTGTCTGCCTCGC-3' DNA (unknown origin) assessed as dissociation rate by SPR analysis.
A short description of data set [4]: Binding affinity to 5'-biotin labeled GCGAGGCAGACACGCTTTTGCGTGTCTGCCTCGC-3' DNA (unknown origin) assessed as association rate by SPR analysis.
Data set [5] can be described thus: Drug uptake in human MDA-MB-231 cell nucleus at 10 uM after 72 hrs by FITC/Hoechst 33342-staining based confocal microscopic analysis. It counts as ADME. The settings on record: mda-mb-231, 72 h.

≈ marks a conversion by molar mass, not a printed value.

In general, solubility refers to how much of the substance goes into solution per volume. Take `CC(=O)Nc1cn(C)c(C(=O)Nc2cn(C)c(C(=O)NCCOCCOCC(=O)Nc3cn(C)c(C(=O)Nc4cc(C(=O)Nc5cc(C(=O)NCCCC(=O)Nc6cn(C)c(C(=O)Nc7cc(C(=O)NCCOCCOCC(=O)Nc8cn(C)c(C(=O)Nc9cc(C(=O)Nc%10cc(C(=O)NCCC(=O)NCCCN(C)CCCN)n(C)c%10)n(C)c9)n8)n(C)c7)n6)n(C)c5)n(C)c4)n3)n2)n1`: the Kd worked out at 16 nM in data set [1] and 3 ×10⁻⁴ /s in data set [3]. Moreover, the solubility in data set [2] was 13.9 mM (≈ 25.9 mg/mL). For the same compound, the Ka in data set [4] is 1.8 ×10⁴ /Ms.

In the case of `CC(=O)Nc1cn(C)c(C(=O)Nc2cn(C)c(C(=O)NCCOCCOCC(=O)Nc3cn(C)c(C(=O)Nc4cc(C(=O)Nc5cc(C(=O)NCCCC(=O)Nc6cn(C)c(C(=O)Nc7cc(C(=O)Nc8cc(C(=O)NCCC(=O)Nc9cn(C)c(C(=O)Nc%10cc(C(=O)Nc%11cc(C(=O)NCCC(=O)NCCCN(C)CCCNC(=S)Nc%12ccc%13c(c%12)C(=O)OC%13%12c%13ccc(O)cc%13Oc%13cc(O)ccc%13%12)n(C)c%11)n(C)c%10)n9)n(C)c8)n(C)c7)n6)n(C)c5)n(C)c4)n3)n2)n1`, the Drug uptake entry in data set [5] is listed as “Active”.

Consider `CC(=O)Nc1cn(C)c(C(=O)Nc2cn(C)c(C(=O)Nc3cc(C(=O)NCCC(=O)Nc4cn(C)c(C(=O)Nc5cc(C(=O)Nc6cc(C(=O)NCCCC(=O)Nc7cn(C)c(C(=O)Nc8cc(C(=O)Nc9cc(C(=O)NCCC(=O)Nc%10cn(C)c(C(=O)Nc%11cc(C(=O)Nc%12cc(C(=O)NCCC(=O)NCCCN(C)CCCNC(=S)Nc%13ccc%14c(c%13)C(=O)OC%14%13c%14ccc(O)cc%14Oc%14cc(O)ccc%14%13)n(C)c%12)n(C)c%11)n%10)n(C)c9)n(C)c8)n7)n(C)c6)n(C)c5)n4)n(C)c3)n2)n1`, for which the Drug uptake entry in data set [5] is “Active”.

Regarding `CC(=O)Nc1cn(C)c(C(=O)Nc2cn(C)c(C(=O)Nc3cc(C(=O)NCCC(=O)Nc4cn(C)c(C(=O)Nc5cc(C(=O)Nc6cc(C(=O)NCCCC(=O)Nc7cn(C)c(C(=O)Nc8cc(C(=O)Nc9cc(C(=O)NCCC(=O)Nc%10cn(C)c(C(=O)Nc%11cc(C(=O)Nc%12cc(C(=O)NCCC(=O)NCCCN(C)CCCN)n(C)c%12)n(C)c%11)n%10)n(C)c9)n(C)c8)n7)n(C)c6)n(C)c5)n4)n(C)c3)n2)n1`, the Kd in data set [1] was found to be 5.9 nM; in data set [3] it was 1.4 ×10⁻³ /s. Further, the solubility in data set [2] stood at 9.1 mM (≈ 17.8 mg/mL). Besides, the Ka in data set [4] is 2.4 ×10⁵ /Ms.

With `CC(=O)Nc1cn(C)c(C(=O)Nc2cn(C)c(C(=O)NCCC(=O)NCCC(=O)Nc3cn(C)c(C(=O)Nc4cc(C(=O)Nc5cc(C(=O)NCCCC(=O)Nc6cn(C)c(C(=O)Nc7cc(C(=O)Nc8cc(C(=O)NCCC(=O)Nc9cn(C)c(C(=O)Nc%10cc(C(=O)Nc%11cc(C(=O)NCCC(=O)NCCCN(C)CCCN)n(C)c%11)n(C)c%10)n9)n(C)c8)n(C)c7)n6)n(C)c5)n(C)c4)n3)n2)n1`, the Kd in data set [1] turned out to be 15 nM; in data set [3] it was 1.9 ×10⁻³ /s. Also, in data set [4], the Ka was 1.3 ×10⁵ /Ms.

Take `CC(=O)Nc1cn(C)c(C(=O)Nc2cn(C)c(C(=O)Nc3cc(C(=O)NCCC(=O)Nc4cn(C)c(C(=O)Nc5cc(C(=O)Nc6cc(C(=O)NCCCC(=O)Nc7cn(C)c(C(=O)Nc8cc(C(=O)NCCOCCOCC(=O)Nc9cn(C)c(C(=O)Nc%10cc(C(=O)Nc%11cc(C(=O)NCCC(=O)NCCCN(C)CCCN)n(C)c%11)n(C)c%10)n9)n(C)c8)n7)n(C)c6)n(C)c5)n4)n(C)c3)n2)n1`: the Kd in data set [1] was 250 nM; in data set [3], 4.5 ×10⁻³ /s. Besides, the Ka in data set [4] turned out to be 1 ×10⁴ /Ms.

With `CC(=O)Nc1cn(C)c(C(=O)Nc2cn(C)c(C(=O)NCCOCCOCC(=O)Nc3cn(C)c(C(=O)Nc4cc(C(=O)Nc5cc(C(=O)NCCCC(=O)Nc6cn(C)c(C(=O)Nc7cc(C(=O)NCCOCCOCC(=O)Nc8cn(C)c(C(=O)Nc9cc(C(=O)Nc%10cc(C(=O)NCCC(=O)NCCCN(C)CCCNC(=S)Nc%11ccc%12c(c%11)C(=O)OC%12%11c%12ccc(O)cc%12Oc%12cc(O)ccc%12%11)n(C)c%10)n(C)c9)n8)n(C)c7)n6)n(C)c5)n(C)c4)n3)n2)n1`, the Drug uptake entry in data set [5] is on record as “Active”.

The values above are taken from ChEMBL document CHEMBL3817807, “Sequence-specific DNA binding by long hairpin pyrrole-imidazole polyamides containing an 8-amino-3,6-dioxaoctanoic acid unit” (Bioorg Med Chem, 2016).
